Source: ChEMBL document CHEMBL4190350, “Synthesis, antimicrobial, antiquorum-sensing, antitumor and cytotoxic activities of new series of cyclopenta(hepta)[b]thiophene and fused cyclohepta[b]thiophene analogs” (Eur J Med Chem, 2017)
Converted amounts (≈) assume the structure as drawn. The source made the active and inactive calls. The rule behind the calls is not given here.

Experiments:
[1] = system: Mus musculus; test: Toxicity in mouse EAC cells implanted Swiss albino mouse assessed as WBC count at 0.5 mg for 9 days (reference value: 23.96 10^3/mm3); format: organism-based; conditions: in vivo, 216 h
[2] = system: Mus musculus; test: Toxicity in mouse EAC cells implanted Swiss albino mouse assessed as hemoglobin level at 0.5 mg for 9 days (reference value: 8.15 g/dl); format: organism-based; conditions: in vivo, 216 h
[3] = system: Ehrlich; test: Antitumor activity against mouse EAC cells implanted in Swiss albino mouse assessed as mean survival time at 0.5 mg for 9 days (reference value: 14.5 day); format: functional
[4] = system: Escherichia coli; test: Antimicrobial activity against Escherichia coli incubated for 24 hrs by disc diffusion assay; format: functional
[5] = system: Mus musculus; test: Toxicity in mouse EAC cells implanted Swiss albino mouse assessed as RBC count at 0.5 mg for 9 days (reference value: 3.69 10^6/mm3); format: organism-based; conditions: in vivo, 216 h
[6] = system: Ehrlich; test: Antitumor activity against mouse EAC cells implanted in Swiss albino mouse assessed as tumor volume at 0.5 mg for 9 days (reference value: 9.85 ml); format: functional
[7] = system: Chromobacterium violaceum; test: Inhibition of quorum sensing system in Chromobacterium violaceum ATCC 12472 assessed as inhibition of violacein production at 5 mg/mL incubated for 48 hrs
[8] = system: MCF7; test: Antitumor activity against human MCF7 cells assessed as inhibition of cell viability incubated for 48 hrs by MTT assay; format: functional, cell-based; conditions: MCF7, 48 h
[9] = system: HepG2; test: Antitumor activity against human HepG2 cells assessed as inhibition of cell viability incubated for 48 hrs by MTT assay; format: functional, cell-based; conditions: HepG2, 48 h
[10] = system: HT-29; test: Antitumor activity against human HT-29 cells assessed as inhibition of cell viability incubated for 48 hrs by MTT assay; format: functional, cell-based; conditions: HT-29, 48 h
[11] = system: WI-38; test: Cytotoxicity in human WI38 cells assessed as inhibition of cell viability incubated for 48 hrs by MTT assay; format: cell-based; conditions: WI-38, 48 h
[12] = system: Staphylococcus aureus; test: Antimicrobial activity against Staphylococcus aureus incubated for 24 hrs by disc diffusion assay; format: functional
[13] = system: Candida albicans; test: Antimicrobial activity against Candida albicans incubated for 48 hrs by disc diffusion assay; format: functional
[14] = system: Aspergillus fumigatus; test: Antimicrobial activity against Aspergillus fumigatus incubated for 48 hrs by disc diffusion assay; format: functional
[15] = system: Ehrlich; test: Antitumor activity against mouse EAC cells implanted in Swiss albino mouse assessed as increase in life span at 0.5 mg for 9 days relative to untreated control; format: functional
[16] = system: Staphylococcus aureus; test: Antimicrobial activity against Staphylococcus aureus incubated for 24 hrs by serial dilution method; format: functional
[17] = Binding affinity to DNA (unknown origin) assessed as reduction in absorption maxima for methyl green/DNA complex incubated for 24 hrs by methyl green/DNA displacement assay
[18] = system: Bacillus cereus; test: Antimicrobial activity against Bacillus cereus incubated for 24 hrs by disc diffusion assay; format: functional
[19] = system: Aspergillus fumigatus; test: Antimicrobial activity against Aspergillus fumigatus incubated for 48 hrs by serial dilution method; format: functional
[20] = system: Candida albicans; test: Antimicrobial activity against Candida albicans incubated for 48 hrs by serial dilution method; format: functional
[21] = system: Escherichia coli; test: Antimicrobial activity against Escherichia coli incubated for 24 hrs by serial dilution method; format: functional
[22] = system: Bacillus cereus; test: Antimicrobial activity against Bacillus cereus incubated for 24 hrs by serial dilution method; format: functional
[23] = system: Ehrlich; test: Antitumor activity against mouse EAC cells implanted in Swiss albino mouse assessed as reduction in tumor cell count at 0.5 mg for 9 days (reference value: 9.85 ml); format: functional, cell-based

Row | SMILES | Activity [1] [×10³ /mm3] | Activity [2] [g/dL] | MST [3] [days] | diameter of the inhibition zone (DIZ) [4] [mm] | Activity [5] [×10⁶ /mm3] | Activity [6] [mL] | INH [7] [mm] | IC50 [8] [µM] | IC50 [9] [µM] | IC50 [10] [µM] | IC50 [11] [µM] | diameter of the inhibition zone (DIZ) [12] [mm] | diameter of the inhibition zone (DIZ) [13] [mm] | diameter of the inhibition zone (DIZ) [14] [mm] | ILS [15] [%] | MIC [16] [µM] | IC50 [17] [µM] | diameter of the inhibition zone (DIZ) [18] [mm] | MIC [21] [µM] | MIC [22] [µM] | further results
1 | CCOC(=O)c1c(NN=C(C#N)C#N)sc2c1CCCCC2 | 8.18 | 12.54 | 42.5 | 7 | 5.09 | 2.7 | 9 | 8.2 | 10.8 | 7.6 | 53.5 | 19 | 11 | 9 | 193.1 | 988 (≈ 312 µg/mL) | 55.3 | 11 | – | – | –
2 | CCOC(=O)c1c(NN=C(C(C)=O)C(C)=O)sc2c1CCCCC2 | – | – | – | 6 | – | – | 4 | 21.4 | 30.6 | 53.3 | – | 8 | 20 | 30 | – | – | 37.1 | 14 | – | – | MIC [19]: 223 µM; MIC [20]: 223 µM (≈ 78.1 µg/mL)
3 | CO/N=C(\C(=O)N[C@@H]1C(=O)N2C(C(=O)O)=C(COC(C)=O)CS[C@H]12)c1csc(N)n1 [CEFOTAXIME] | – | – | – | – | – | – | – | – | – | – | – | – | – | – | – | 32.9 (≈ 15 µg/mL) | – | – | 13.6 (≈ 6.19 µg/mL) | – | –
4 | CCOC(=O)c1c(NN=C(C(C)=O)C(C)=O)sc2c1CCC2 | 8.76 | 12.23 | 39.5 | 21 | 4.95 | 3.13 | 11 | 7.6 | 13.8 | 18.7 | 33.5 | 22 | 23 | 26 | 172.35 | 485 (≈ 156 µg/mL) | 42.2 | 26 | 485 (≈ 156 µg/mL) | 485 (≈ 156 µg/mL) | MIC [19]: 485 µM; MIC [20]: 485 µM (≈ 156 µg/mL)
5 | CC(=O)C1(C(=O)c2ccccc2)N=Nc2sc3c(c2C1=O)CCCCC3 (stereo not drawn) | 7.95 | 12.92 | 43.3 | <2 | 5.16 | 2.55 | 11 | 11.8 | 14.1 | 9.7 | 63.3 | 5 | <2 | <2 | 198.62 | – | 21.4 | 16 | – | 853 (≈ 313 µg/mL) | –
6 | CCOC(=O)C1(C(C)=O)N=Nc2sc3c(c2C1=O)CCCCC3 (stereo not drawn) | – | – | – | 17 | – | – | 3 | 50.2 | 91.2 | 78.6 | – | <2 | 5 | <2 | – | – | – | 5 | 934 (≈ 312 µg/mL) | – | –
7 | CC1(C)S[C@@H]2[C@H](NC(=O)[C@H](N)c3ccccc3)C(=O)N2[C@H]1C(=O)O [AMPICILLIN] | – | – | – | 28 | – | – | – | – | – | – | – | 20 | – | – | – | 894 (≈ 313 µg/mL) | – | 12 | 55.9 (≈ 19.5 µg/mL) | 3580 (≈ 1250 µg/mL) | –
8 | CCOC(=O)/C(=N/Nc1sc2c(c1C(=O)OCC)CCCCC2)C(C)=O | 7.11 | 13.15 | 45 | 22 | 5.51 | 1.97 | < 2 | 5.8 | 9.1 | 4.5 | 44.8 | 32 | <2 | <2 | 210.34 | 205 (≈ 78.1 µg/mL) | 40.6 | 24 | 205 (≈ 78.1 µg/mL) | 411 (≈ 156 µg/mL) | Activity [23]: Active
9 | CC1=NN=C(C)C1=NNc1sc2c(c1C(=O)NN)CCCCC2 | 6.9 | 13.23 | 47.5 | <2 | 5.57 | 1.85 | 5 | 4.1 | 6.9 | 5.7 | 33.2 | <2 | <2 | <2 | 227.55 | – | 27.8 | <2 | – | – | Activity [23]: Active
10 | CC(=O)C1(C(C)=O)N=Nc2sc3c(c2C1=O)CCCCC3 | 9.11 | 12.04 | 36 | <2 | 4.81 | 3.3 | 3 | 14.9 | 20.7 | 12.8 | 47.6 | <2 | 19 | <2 | 148.27 | – | 45.5 | 7 | – | – | MIC [20]: 513 µM (≈ 156 µg/mL)
11 | Nc1nc2sc3c(c2c(=O)n1N)CCCCC3 | – | – | – | 11 | – | – | < 2 | 35.8 | 82.7 | 51.6 | – | 5 | <2 | <2 | – | – | – | 17 | – | 1250 (≈ 313 µg/mL) | –
12 | NNC(=O)c1c(NN=C2C(N)=NN=C2N)sc2c1CCCCC2 | – | – | – | 19 | – | – | 12 | 23.2 | 21.6 | 30.5 | – | 28 | 24 | 32 | – | 234 (≈ 78.1 µg/mL) | 52.2 | 30 | 467 (≈ 156 µg/mL) | 234 (≈ 78.1 µg/mL) | MIC [19]: 234 µM; MIC [20]: 467 µM (≈ 156 µg/mL)
13 | OC(Cn1cncn1)(Cn1cncn1)c1ccc(F)cc1F [FLUCONAZOLE] | – | – | – | – | – | – | – | – | – | – | – | – | 22 | <2 | – | – | – | – | – | – | MIC [19]: > 2500 mg/L; MIC [20]: 4080 µM (≈ 1250 µg/mL)
14 | CCOC(=O)/C(=N/Nc1sc2c(c1C(=O)OCC)CCC2)C(C)=O | 7.56 | 13.1 | 44.3 | 4 | 5.49 | 2.32 | 6 | 9.7 | 16.1 | 8.8 | 25.3 | <2 | 5 | 16 | 205.52 | – | 65.7 | 7 | – | – | MIC [19]: 887 µM; Activity [23]: Active
